These are literature values, as cited in US7105176B2, “Production of solid preparations of water-soluble, sparingly water-soluble or water-insoluble active compounds” (BASF Aktiengesellschaft, priority 2000, dated 2006).

SMILES strings stand for the structures.

For this data set the following is noted: at 314 nm.

In the case of `CCCCC(CC)COC(=O)c1ccc(Nc2nc(Nc3ccc(C(=O)OCC(CC)CCCC)cc3)nc(Nc3ccc(C(=O)OCC(CC)CCCC)cc3)n2)cc1` (stereo not shown) [Uvinul® T150, 2,4,6-trianilino-p-(carbo-2′-ethylhexyl-1′-oxy)-1,3,5-triazine], the extinction coefficient was above 1500.
